Experimental data as given in patent US20130338264A1, “CONDENSATION PRODUCTS OF MELAMINE AND PHENYLPHOSPHONIC ACID AND THEIR USE AS FLAME RETARDANTS” (BASF SE, priority 2011, published 2013).

Columns and labels:
[1] = Decomposition by TGA (thermogravimetric analysis); type: physicochemical; conditions: for TGA onset [° C.]: overview table
Procedure: Melamine hydrogenphenylphosphonate (MPPO) from example 1 (10.000 g, 0.04 mol) is tempered in a glass tube at 300° C./5·10^−1 mbar for 2 h and additional for 22 h. The mass balance is monitored for the residual by gravimetrically methods. The obtained product is characterized by phosphorous content, 1,3,5-triazine components and thermogravimetry.
Based on the results of the thermo gravimetric analysis (TGA) of the compounds in examples A1-A5 one can conclude that the condensation of melamine hydrogene phenyphosphonate occurs in a two step mode. […] The mode of condensation therefore may be controlled in a balanced thermometric and stoichiometric approach. According to example A2-A4 in a temperature range of 280-300° C. melam formation is favoured. However, other temperature profiles could be more suitable for other stoichiometric ratios. The increasing phosphorous content in the compounds of example A2-A3 in comparison to example A5 points to the condensation of phenylphosphonic anions.

[2] = Solubility in water; type: physicochemical
Procedure: Solubility in water: 11 g/L (25° C.); 70 g/L (95° C.)

Substance: Melamine Phenylhydrogenphosphonate (MPPO) [Example A1]
- Decomposition by TGA: onset [1]: 277 °C
- TGA Mass loss at T ° C. [%] ([1]; T = 320 ° C.): 320 [−10%]
- Decomposition by TGA: mass loss at onset ([1]; at onset 277° C.): −12%
- TGA onset [° C.] [1]: 277 °C
- Solubility in water ([2]; 25° C.): 11 mg/mL
- Solubility in water ([2]; 95° C.): 70 mg/mL

Substance: Melam Phenylhydrogenphosphonate [Example A5]
- Decomposition by TGA: onset [1]: 345 °C
- TGA Mass loss at T ° C. [%] ([1]; T = 372 ° C.): 372 [−15%]
- Decomposition by TGA: mass loss at onset ([1]; at onset 345° C., 1 molÄq H2O): −4.5%
- Decomposition by TGA: mass loss at onset ([1]; at onset 372° C.): −55%
- TGA onset [° C.] [1]: 345 °C
- Decomposition by TGA: onset (second step) ([1]; second onset printed): 372 °C
